In patent publication US5374621A (Regents of the University of California, priority 1991, dated 1994):

Columns and labels:
[1] = test system: heat induced edema in rat paws; experiment: Heat injury to the skin: paw edema after immersion in 58° C. water; type: in vivo; settings: for ED50 (nmol/kg), inhibition of heat-induced edema / ED50 (μg/kg), inhibition of heat-induced edema: % increase in paw water content 30 minutes after heat injury, as % of saline control
Procedure: Peptides, obtained from Peninsula Laboratories or Bachem Laboratories, were dissolved in sterile saline and injected intravenously 10 minutes before exposure to heat.
After removal of the saline-treated animal's paw from 58° C. water, the paw's skin became red, followed by progressive swelling from an initial volume of about 1.5 ml to a net increase of 0.77 ml within 5 minutes.
To compare the potency of the peptides, the following method was used. Thirty minutes after heat injury, rats were killed with an over-dose of concentrated sodium pentobarbital, and both paws cut off at the ankle joint and weighed. All paws were then dried in an oven at 80° C. for 24 hours and re-weighed to obtain % increase in water content as: [formula]
The rat was euthanized 30 minutes later with concentrated pentobarbital and both paws removed by cutting at the ankle joint and weighed. The paws were then dried at 80° C. for 24 hours. Controls received only saline at 0.1 ml/kg i.v. The increase in the water content of the heated paw was calculated as: heated paw (wet wt.--dry wt.)--unheated paw (wet wt.--dry wt.).

[2] = test system: substance P; experiment: Salivary secretion induced by substance P injections; type: in vivo; settings: substance P 40 μg/kg s.c., rat
Description: Thus, a chemical (Such as illustrated by CP-96,345) that antagonizes the inflammatory mediator, substance P, is not sufficient to prevent edema after thermal injury.

[3] = test system: vascular leakage from abdominal muscle after celiotomy; experiment: Skeletal muscle injury (celiotomy): Monastral blue vascular leakage; type: in vivo, rat; settings: for Lesion Size (x104): area x intensity; for Area (mm^2) of dye staining: samples 30 minutes after celiotomy
Procedure: (§1) Experiments were conducted on 260±6 (S.D.) male Sprague-Dawley rats from Simonsen Laboratories (Gilroy, Calif.). Animals were injected with sodium pentobarbital, 60 mg/kg i.p. Ten to 15 minutes later, after anesthesia was signaled by loss of the righting reflex and motor responses to tail pinch, Monastral blue B (used to estimate leakage of macromolecules from blood vessels), suspended in saline at 30 mg/ml (Sigma Co., St. Louis, Mo.), was injected 60 mg/kg i.v. at a rate of approximately 0.2 ml/100 g body weight/min into a branch of the femoral vein. Procedures for inducing vascular leakage began three minutes after Monastral blue infusion.
The abdomen was shaved and a 4 cm scalpel cut was made in the midline. After manually parting the skin, an incision of equal length was made in the rectus abdominus and the skin was then pushed together to cover the wound. Thirty minutes after celiotomy, the rat was euthanized with an i.v. overdose of pentobarbital and the skin and muscle surrounding the site of incision were removed and fixed in 10% neutral-buffered formalin (NBF) for at least 2 days before further analysis.
To measure the area of dye distribution and the intensity of dye staining on the surfaces of the tissues, we used an image-processing system (JAVA, Jandel Video Analysis System, Corte Madera, Calif.) in which a video image, composed of pixels with different gray intensities, was subjected to numeric analysis. Samples of the abdominal muscle and brain were placed on a non-reflective coated glass board illuminated by six 60 watt fluorescent bulbs placed 1.65 m above the tissues and the images recorded under these constant conditions, without magnification, on video film. The areas of dye distribution were demarcated with a mouse-pointer device and the average intensity in the defined areas was obtained. To calibrate light intensity on the JAVA system, various concentrations of Monastral blue B (0.0625 to 16 mg/ml) were placed on white filter paper and the intensity scale set from 0 to 255 units. The relationship of light intensity, which is the degree of blueness in arbitrary units, to Monastral blue B concentrations (mg/ml) was: light intensity =124+116 log MB, an equation obtained by linear regression with a correlation coefficient of r= 0.98. The term "lesion size", applied to the area of staining multiplied by its light intensity, represents a two-dimensional measurement of vascular leakage. This assessment was considered adequate because the injuries were to the surfaces of the muscle and cortex and the lesions were not more than a few mm deep. To further characterize the sites of dye leakage from blood vessels, samples of muscle and cortex, cut to approximately 500 μm thickness, were mounted in glycerol gelatin for microscopic examination.
Animals were randomly assigned to treatments using a paired control design with a minimum of 6 rats per group. Data were expressed as the mean ± S.E.M. and the ED50 and 95% confidence limits were estimated by the method of Litchfield and Wilcoxon (1949). The Student's test was used for comparison of groups.

[4] = test system: vascular leakage from brain cortex after freeze injury; experiment: Cerebral cortex freeze injury: Monastral blue vascular leakage; type: in vivo, rat; settings: 4 nmol/kg i.v. 10 minutes before freeze injury
Procedure: as §1
This model of vasogenic edema in brain tissues was first described by Chan et al. (1983). Anesthetized rats were mounted on a David Kopf stereotaxic instrument and a 2 to 2.5 cm midline incision made in the shaved scalp. After parting the skin and connective tissue to expose the skull, a 60 mm^2 plate, connected to a brass cup filled with dry ice and acetone and maintained at -50° C., was applied to the skull for four minutes. One hour later, the animal was perfused through the aorta with saline, followed by 10% NBF, and then the brain was removed and stored in 10% NBF for at least two days before further analysis. Sections of membranes covering the cortex were also dissected from the underlying tissues and separately examined.
To measure the area of dye distribution and the intensity of dye staining on the surfaces of the tissues, we used an image-processing system (JAVA, Jandel Video Analysis System, Corte Madera, Calif.) in which a video image, composed of pixels with different gray intensities, was subjected to numeric analysis. Samples of the abdominal muscle and brain were placed on a non-reflective coated glass board illuminated by six 60 watt fluorescent bulbs placed 1.65 m above the tissues and the images recorded under these constant conditions, without magnification, on video film. The areas of dye distribution were demarcated with a mouse-pointer device and the average intensity in the defined areas was obtained. […]

[5] = test system: epinephrine-induced pulmonary edema; experiment: Epinephrine-induced pulmonary edema; type: in vivo, rat; settings: 10 nmol/kg i.v. 10 minutes before epinephrine bitartrate 10 μg/kg i.v.; lungs 30 minutes after Epi; Saline + Epi 6.2 ± 0.3
Procedure: Male Sprague-Dawley rats weighing 260±9 g (Simonsen Labs, Gilroy, Calif.) were used in all experiments. […] This single dose of Epi is sufficient to produce a non-lethal pulmonary edema in the pentobarbital-anesthetized rat. Thirty minutes after Epi, animals were euthanized with concentrated pentobarbital and the lungs were removed. […] Lungs were blotted on paper towels and weighed (wet wt.), then placed in a 80° C. oven for 24 hour and re-weighed again (dry wt.). The value 1000 (wet wt.-dry wt.)/body wt. was termed the edema index. All data are presented as mean ± SEM. Statistical significance was assessed by analysis of variance (ANOVA) with the Studentized range-test.

[6] = test system: blood pressure; experiment: Blood pressure (mean arterial pressure) after i.v. injection; type: in vivo; settings: 10 nmol/kg i.v.; FIG. 4
Procedure: Blood pressure was monitored of animals to which 10 nmol/kg of different compounds were administered i.v. One administration was of saline as control. […] Blood pressure was monitored at intervals over a thirty minute period after injection.

`COc1ccccc1CN[C@H]1C2CCN(CC2)[C@H]1C(c1ccccc1)c1ccccc1` [CP-96,345, reference compound] was tested, and the “Increase in Water Content of Heated Paw” value ([1]; 4 mg/kg i.v. 10 minutes before 58° C. water for one minute, 30 minutes later, saline 1117 ± 33, not significantly different) was 1057 ± 24 mg and the “salivary secretion induced by substance P” value [2] was “prevent salivary secretion”.
Kinetensin was tested, and the “ED20, inhibition of heat-induced edema” value ([1]; i.v. 10 minutes before heat, dose range 200-800 nmol/kg) was 420 nmol/kg.
For LANT-6, the “swelling after heat injury” value ([1]; 0.5 mg/kg i.v., control 69±2%, N=6 pairs, P<0.001) was 2±1%.
With N-acetyl-neurotensin (8-13) [AcNT8-13] the “ED50 (nmol/kg), inhibition of heat-induced edema” value (“ED50 (nmol/kg), inhibition” below) ([1]; i.v. 10 minutes before heat) was 2.1 nmol/kg, the “ED50 (μg/kg), inhibition of heat-induced edema” value (shortened to “ED50 (μg/kg), inhibition”) ([1]; i.v. 10 minutes before heat) was 1.8 µg/kg and the “Lesion Size (x104)” value ([3]; 4 nmol/kg i.v. 5 minutes after celiotomy, saline 10.4 ± 0.5) was 5.3 ± 0.4 x104. For the same compound, the “Intensity of dye staining” value ([3]; 4 nmol/kg i.v. 5 minutes after celiotomy, saline 137 ± 31) was 108 ± 5, the “Area (mm^2) of dye staining” value ([3]; 4 nmol/kg i.v. 5 minutes after celiotomy, saline 758 ± 39) was 493 ± 27 mm^2 and the “Lesion Size (x104)” value ([3]; 4 nmol/kg i.v. 10 minutes before celiotomy, saline 12.7 ± 0.4) was 5.0 ± 0.2 x104. The “Intensity of dye staining” value ([3]; 4 nmol/kg i.v. 10 minutes before celiotomy, saline 149 ± 2) was 126 ± 2, the “Area (mm^2) of dye staining” value ([3]; 4 nmol/kg i.v. 10 minutes before celiotomy, saline 852 ± 27) was 399 ± 18 mm^2 and the “Lesion Size (x103)” value ([4]; area x intensity, saline 5.7 ± 0.2) was 2.4 ± 0.3 x103. For the same compound, the “Area (mm^2) of dye staining” value ([4]; brain removed sixty minutes later, saline 38 ± 2) was 21 ± 2 mm^2, the “Intensity of dye staining” value ([4]; saline 151 ± 4) was 119 ± 4 and the “Edema Index, 1000 (wet wt.-dry wt.)/body wt.” value [5] was 4.9 ± 0.2. For the same compound, the “hypotensive effect (blood pressure over 30 minutes)” value [6] was “lacked hypotensive effect”.
“neuromedin N (IPYIL; Neuromedin N; UniProt P30990 144-148, looked up) [peptide of the neurotensin family]” was tested, and the “ED50 (nmol/kg), inhibition” value ([1]; i.v. 10 minutes before heat) was 10.0 nmol/kg and the “ED50 (μg/kg), inhibition” value ([1]; i.v. 10 minutes before heat) was 7.5 µg/kg.
For neurotensin (8-13) [NT (8-13)], the “swelling response (paw volume change)” value ([1]; FIG. 1, different doses before 58° C. water, paw volume up to 30 minutes) was “dose-dependent suppression”, the “ED50 (nmol/kg), inhibition” value ([1]; i.v. 10 minutes before heat) was 1.9 nmol/kg and the “ED50 (μg/kg), inhibition” value ([1]; i.v. 10 minutes before heat) was 1.6 µg/kg. For the same compound, the “Edema Index, 1000 (wet wt.-dry wt.)/body wt.” value [5] was 4.7 ± 0.2 and the “hypotensive effect (blood pressure over 30 minutes)” value [6] was “lacked hypotensive effect”.
xenopsin was tested, and the “ED50 (nmol/kg), inhibition” value ([1]; i.v. 10 minutes before heat) was 0.9 nmol/kg and the “ED50 (μg/kg), inhibition” value ([1]; i.v. 10 minutes before heat) was 0.88 µg/kg.
